Key:
[1] = test system: C5a receptor from PMN membranes; assay: Release of binding sites from the membrane: total binding activity of detergent extracts at saturation compared with intact membrane; set-up: species or system human
Description: In additional experiments (results not shown) the ability of digitonin and β-dodecyl maltoside to release binding sites from the membrane was determined by comparing the total binding activity of the extracts, at saturation, with that of an equivalent amount of intact membrane. In the two experiments in which a direct comparison was made the efficiencies of the detergents appeared to be similar, both solubilized 30-35% of the receptors initially present in the membrane. However, over the course of the work we did observe variability from experiment to experiment and it is our impression that, on average, digitonin was more efficient than β-dodecyl maltoside (for an example, see Table I).

solubilized C5a receptor = assay: Inhibition of C5a binding to solubilized or purified receptor by nucleotides; set-up: species or system human
Description: -All assays, except where noted, were performed at 4°C, with freshly thawed membranes or freshly prepared soluble receptor. To assay intact membranes, assay buffer (50 mM HEPES, pH 7.2, containing 1 mM CaCl₂, 5 mM MgCl₂, 0.1 mM PMSF, 0.1% bacitracin, and 0.5% bovine serum albumin), ¹²⁵I-C5a (typically 0.1 ng), and membrane (typically 0.5 µg) were added sequentially to a final volume of 200 µl. After incubation for 60-90 minutes 2 ml of assay buffer was added, the solution mixed, and the sample filtered through either a Whatman® GF/C filter treated with 0.33% polyethyleneimine or an untreated Millipore®GVWP filter. […] The filters were then counted in a Packard 460 γ-counter. Nonspecific backgrounds were determined by including 20 ng or more of unlabled C5a in the incubation mixture. To assay soluble receptor, assay buffer, solubilized membrane (typically 5 µl) and ¹²⁵I-C5a were mixed to a final volume of 200 µl and incubated for 15-30 minutes, at which time 500 µl of 0.1% bovine γ-globulin and 500 µl of 30% polyethylene glycol were added sequentially with vigorous mixing. After an additional 5 minutes, the sample was filtered and washed with 2 ml of a 9% PEG solution. (Precipitation is essentially complete in less than one minute and the precipitated receptor-­ligand complex is stable for more than 30 minutes.)
As shown in Figure 5 membranes were solubilized in digitonin and assayed for binding activity in the presence of increasing amounts of GTPγS.

Row | Compound | receptors initially present in the membrane solubilized [1] | maximum inhibition of C5a binding (solubilized C5a receptor; digitonin solubilized membranes) | IC50 (solubilized C5a receptor; inhibition of C5a binding, digitonin solubilized membranes, read-out: IC₅₀) | inhibition of binding of C5a to the purified receptor (solubilized C5a receptor; purified receptor, 3 different preparations)
1 | CCCCCCCCCCCCO[C@@H]1O[C@H](CO)[C@@H](O[C@H]2O[C@H](CO)[C@@H](O)[C@H](O)[C@H]2O)[C@H](O)[C@H]1O [β-Dodecyl maltoside] | 30-35% | – | – | –
2 | Nc1nc2c(ncn2[C@@H]2O[C@H](COP(=O)(O)OP(=O)(O)OP(O)(O)=S)[C@@H](O)[C@H]2O)c(=O)[nH]1 [GTPγS] | – | 85% | 10 nM | 27-50%
